Data reported in ChEMBL document CHEMBL1201862, “PubChem BioAssay data set” (2004).
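Interpolation was linear, between the two tested concentrations surrounding the appropriate level; five concentrations were tested over 48 hours in 96-well plates. Abbreviation: GI50, concentration required for 50% inhibition of growth.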 Activity calls are given as the source filed them. No stated cut-off is given here; in the data, active = GI50 up to about 1.1 µM and inactive = higher.

Assays:
Assay in all cases: NCI-60 cell line screen, 48 h
MOLT-4 = system: MOLT-4
HOP-92 = system: HOP-92
HOP-62 = system: HOP-62
HCT-15 = system: HCT-15
LOX IMVI = system: LOX IMVI
EKVX = system: EKVX
SF-295 = system: SF-295
K562 = system: K562
SF-539 = system: SF-539
RPMI-8226 = system: RPMI-8226
SN12C = system: SN12C
SK-OV-3 = system: SK-OV-3
OVCAR-4 = system: OVCAR-4
CCRF-CEM = system: CCRF-CEM
HT-29 = system: HT-29
MDA-MB-231 = system: MDA-MB-231
SF-268 = system: SF-268
MCF7 = system: MCF7
OVCAR-8 = system: OVCAR-8
T47D = system: T47D

Row | SMILES | GI50 (MOLT-4) | GI50 (HOP-92) | GI50 (HOP-62) | GI50 (HCT-15) [µM] | GI50 (LOX IMVI) | GI50 (EKVX) | GI50 (SF-295) | GI50 (K562) | GI50 (SF-539) | GI50 (RPMI-8226) | GI50 (SN12C) | GI50 (SK-OV-3) | GI50 (OVCAR-4) | GI50 (CCRF-CEM) | GI50 (HT-29) | GI50 (MDA-MB-231) | GI50 (SF-268) | GI50 (MCF7) | GI50 (OVCAR-8) | GI50 (T47D)
1 | CC(C)(C)C1(COC(=O)c2ccc(N)cc2)COC1 | 30.5 µM (inactive) | > 100 µM (inactive) | > 100 µM (inactive) | 63.2 | > 100 µM (inactive) | 39.4 µM (inactive) | 29.1 µM (inactive) | 46.3 µM (inactive) | 32.4 µM (inactive) | 58.9 µM (inactive) | 94.6 µM (inactive) | 58.1 µM (inactive) | 32.7 µM (inactive) | 46 µM (inactive) | 50.1 µM (inactive) | 52.1 µM (inactive) | > 100 µM (inactive) | 45 µM (inactive) | 58.3 µM (inactive) | 24.4 µM (inactive)
2 | Cn1ccc(C(=O)NCCN(CCNC(=O)c2ccn(C)c(=O)c2O)CCNC(=O)c2cccc(=O)n2O)c(O)c1=O |  | > 100 µM (inactive) | > 100 µM (inactive) | > 100 | > 100 µM (inactive) |  | > 100 µM (inactive) | > 100 µM (inactive) | > 100 µM (inactive) | > 100 µM (inactive) | > 100 µM (inactive) | > 100 µM (inactive) | > 100 µM (inactive) | > 100 µM (inactive) | > 100 µM (inactive) | > 100 µM (inactive) | > 100 µM (inactive) | > 100 µM (inactive) | > 100 µM (inactive) | > 100 µM (inactive)
3 | Oc1cc(-c2ccccc2)nc2c(S)cccc12 | 47.3 µM (inactive) | 63.2 µM (inactive) | > 100 µM (inactive) | > 100 |  |  | > 100 µM (inactive) | 81.3 µM (inactive) | > 100 µM (inactive) | > 100 µM (inactive) | > 100 µM (inactive) | > 100 µM (inactive) | > 100 µM (inactive) | > 100 µM (inactive) | > 100 µM (inactive) | 62.5 µM (inactive) | > 100 µM (inactive) | > 100 µM (inactive) | > 100 µM (inactive) | 29 µM (inactive)
4 | CC1(C)Cc2c(c3ccccc3c3nc4c(nc23)c2c(c3ccccc34)OC(C)(C)C2)O1 | > 100 µM (inactive) | > 100 µM (inactive) | > 100 µM (inactive) | > 100 | > 100 µM (inactive) | > 100 µM (inactive) | > 100 µM (inactive) |  | > 100 µM (inactive) | > 100 µM (inactive) | > 100 µM (inactive) | > 100 µM (inactive) | > 100 µM (inactive) | > 100 µM (inactive) | > 100 µM (inactive) | > 100 µM (inactive) | > 100 µM (inactive) | > 100 µM (inactive) | > 100 µM (inactive) | > 100 µM (inactive)
5 | COC(=O)C1=C(C(=O)OC)C2OC1C1C2C2(C)C(C)=C(C)C1(C)[S+]2[O-] (stereo not given) | 2.02 µM (inactive) | 15.8 µM (inactive) | 20.2 µM (inactive) | 4.18 | 16.6 µM (inactive) | 11.5 µM (inactive) | 28.4 µM (inactive) | 4.9 µM (inactive) | 5.51 µM (inactive) | 4.73 µM (inactive) | 16.6 µM (inactive) | 37.9 µM (inactive) | 12.1 µM (inactive) |  | 6.47 µM (inactive) | 22.5 µM (inactive) | 9.55 µM (inactive) | 6.28 µM (inactive) | 5.15 µM (inactive) | 6.71 µM (inactive)
6 | C=Cc1c(C)c(OC)cc2c1Oc1ccc(OC)c(C)c1CC2 | > 100 µM (inactive) | > 100 µM (inactive) | > 100 µM (inactive) | > 100 |  | 45.7 µM (inactive) | > 100 µM (inactive) | > 100 µM (inactive) | > 100 µM (inactive) | > 100 µM (inactive) | > 100 µM (inactive) | > 100 µM (inactive) | > 100 µM (inactive) | > 100 µM (inactive) | > 100 µM (inactive) | > 100 µM (inactive) | > 100 µM (inactive) | > 100 µM (inactive) | > 100 µM (inactive) | > 100 µM (inactive)
7 | N#CC(C#N)=C1C(=Cc2ccc(OCCCCCCCCCCSSCCCCCCCCCCOc3ccc(C=C4C(=C(C#N)C#N)c5ccccc5C4=C(C#N)C#N)cc3)cc2)C(=C(C#N)C#N)c2ccccc21 | 23.6 µM (inactive) | 17.7 µM (inactive) | 22.5 µM (inactive) | 16.7 | 18.5 µM (inactive) | 20.9 µM (inactive) | 20.1 µM (inactive) | 23.7 µM (inactive) | 16.1 µM (inactive) | 39.2 µM (inactive) |  |  | 21.8 µM (inactive) |  | 19.2 µM (inactive) | 28.6 µM (inactive) | 19.5 µM (inactive) | 20.8 µM (inactive) | 31 µM (inactive) | 31.6 µM (inactive)
8 | CCCCC(=O)c1c(O)ccc2c(C)cc(=O)oc12 | 77.1 µM (inactive) | 36.3 µM (inactive) | > 100 µM (inactive) | 50.4 | 93.8 µM (inactive) | 89.1 µM (inactive) | > 100 µM (inactive) | > 100 µM (inactive) | > 100 µM (inactive) | 52 µM (inactive) | > 100 µM (inactive) |  | 69.8 µM (inactive) | 82.2 µM (inactive) | > 100 µM (inactive) | 67.8 µM (inactive) | > 100 µM (inactive) | 76.2 µM (inactive) | > 100 µM (inactive) | 14.8 µM (inactive)
9 | CNc1cccc(-c2cc(O)c3cc4c(cc3n2)OCO4)c1 | 0.581 µM (active) | 0.533 µM (active) | 0.409 µM (active) | 0.272 | 0.372 µM (active) |  | 2.28 µM (inactive) | 0.201 µM (active) | 0.198 µM (active) | 0.358 µM (active) | 0.553 µM (active) | 0.256 µM (active) | > 20.7 µM (inactive) | 0.236 µM (active) | 0.3 µM (active) | 0.407 µM (active) | 1.05 µM (active) | 0.293 µM (active) | 0.409 µM (active) | 52 µM (inactive)
10 | CCOC(=O)C(CC(C)C)NC(=O)CSc1nnc(COc2ccc(Cl)cc2)n1-c1ccccc1 (stereo not given) | 4.51 µM (inactive) | 18.6 µM (inactive) | 19.4 µM (inactive) | 18.5 | 14.9 µM (inactive) |  |  | 19.3 µM (inactive) | 21.8 µM (inactive) | 16.4 µM (inactive) | 15.6 µM (inactive) | 27.2 µM (inactive) | 16.2 µM (inactive) | 5.08 µM (inactive) | 18.5 µM (inactive) | 16.9 µM (inactive) | 18.2 µM (inactive) | 18.5 µM (inactive) |  | 14.4 µM (inactive)
11 | CCOC(=O)C1C(=O)CC(C)(O)C(C(=O)OCC)C1c1ccc(OC)cc1 (stereo not given) | > 100 µM (inactive) | > 100 µM (inactive) | > 100 µM (inactive) | > 100 | > 100 µM (inactive) | > 100 µM (inactive) | > 100 µM (inactive) | > 100 µM (inactive) | > 100 µM (inactive) | > 100 µM (inactive) | > 100 µM (inactive) |  | > 100 µM (inactive) | > 100 µM (inactive) | > 100 µM (inactive) | > 100 µM (inactive) | > 100 µM (inactive) | > 100 µM (inactive) | > 100 µM (inactive) | > 100 µM (inactive)
12 | COC(OC)[C@@H]1OC[C@@H](O)[C@@H]1n1cnc2c(N)ncnc21 | > 100 µM (inactive) | > 100 µM (inactive) | > 100 µM (inactive) | > 100 | > 100 µM (inactive) | > 100 µM (inactive) | > 100 µM (inactive) | > 100 µM (inactive) | > 100 µM (inactive) | > 100 µM (inactive) | > 100 µM (inactive) | > 100 µM (inactive) | > 100 µM (inactive) | > 100 µM (inactive) | > 100 µM (inactive) | > 100 µM (inactive) | > 100 µM (inactive) | > 100 µM (inactive) |  | > 100 µM (inactive)
13 | CSc1ncnc2c1cnn2Cc1cn(COCC(O)CO)nn1 (stereo not given) | > 100 µM (inactive) | > 100 µM (inactive) | > 100 µM (inactive) | > 100 | > 100 µM (inactive) | > 100 µM (inactive) | > 100 µM (inactive) |  | > 100 µM (inactive) | > 100 µM (inactive) | > 100 µM (inactive) | > 100 µM (inactive) | > 100 µM (inactive) | > 100 µM (inactive) | > 100 µM (inactive) | > 100 µM (inactive) | 22.8 µM (inactive) | > 100 µM (inactive) | > 100 µM (inactive) | > 100 µM (inactive)
14 | COc1cc2cc(C(=O)N3CC(CCl)c4c3cc([N+](C)(C)Cc3ccc([N+](=O)[O-])n3C)c3ccccc43)[nH]c2c(OC)c1OC (stereo not given) | 1.93 µM (inactive) | 0.619 µM (active) | 4.02 µM (inactive) | 1.58 | 2.31 µM (inactive) | 2.72 µM (inactive) | 1.31 µM (inactive) |  | 2.02 µM (inactive) | 0.316 µM (active) | 4.54 µM (inactive) | 3.81 µM (inactive) | 1.88 µM (inactive) | 1.77 µM (inactive) | 1.29 µM (inactive) | 2.42 µM (inactive) | 2.62 µM (inactive) | 1.46 µM (inactive) | 1.38 µM (inactive) | 3.23 µM (inactive)
15 | CC1=C(C#N)C(=O)N(/N=C/c2ccc(Cl)cc2)C(=O)/C1=c1\o/c(=C2/C(=O)N(/N=C/c3ccc(Cl)cc3)C(=O)C(C#N)=C2C)c2nccnc12 | 88.3 µM (inactive) | > 100 µM (inactive) |  | 82 | > 100 µM (inactive) | > 100 µM (inactive) | > 100 µM (inactive) | 69.7 µM (inactive) | > 100 µM (inactive) | 60.7 µM (inactive) | > 100 µM (inactive) | > 100 µM (inactive) | 57.5 µM (inactive) | 70.3 µM (inactive) | > 100 µM (inactive) | > 100 µM (inactive) | 47.3 µM (inactive) | 70.5 µM (inactive) | > 100 µM (inactive) | > 100 µM (inactive)
